Consider five molecules from article PMC7220906, “Target-responsive vasoactive probes for ultrasensitive molecular imaging” (Nature Communications, 2020).

As a reminder, the EC50 is the concentration giving half of the maximal effect.

Each structure is given as a SMILES string. Read-outs that look alike come from different tables or passages of the source. Residues, ends and D or L forms follow the SMILES beside them. *: point of attachment. Biotin = O=C1N[C@H]2[C@H](CS[C@H]2CCCCC(=O)*)N1; X2 = O=C(CCN1C(=O)CC(*)C1=O)NCCc1ccc(O)c(O)c1; X1 = C[C@@H]1NC(=O)N[C@@H]1CCCCCC(=O)*

In one assay the test system is streptavidin (SA). Also on record: method as in 2 sources, ref 21 = [21]; PMID 9601024; doi:10.1021/bi9803123; 21. Klumb LA Chu V Stayton PS Energetic roles of hydrogen bonds at the ureido oxygen binding pocket in the streptavidin−biotin complex Biochemistry 1998 37 7657 7663 10.1021/bi9803123 9601024 ||| ref 22 = [22]; PMID 7041971; doi:10.1021/bi00534a024; 22. Hofmann K Titus G Montibeller JA Finn FM Avidin binding of carboxyl-substituted biotin and analogues Biochemistry 1982 21 978 984 10.1021/bi00534a024 7041971. The note with it: cited from earlier work.

A further assay deals with T1, PACAP receptor PAC1 (Homo sapiens, UniProt P41586).
T1 construct: expressed in transfected cells; host or cells: CHO K1 cells stably transduced by lentivirus with PAC1 and the Glo22F cAMP luciferase
T1 sequence (P41586 21-468): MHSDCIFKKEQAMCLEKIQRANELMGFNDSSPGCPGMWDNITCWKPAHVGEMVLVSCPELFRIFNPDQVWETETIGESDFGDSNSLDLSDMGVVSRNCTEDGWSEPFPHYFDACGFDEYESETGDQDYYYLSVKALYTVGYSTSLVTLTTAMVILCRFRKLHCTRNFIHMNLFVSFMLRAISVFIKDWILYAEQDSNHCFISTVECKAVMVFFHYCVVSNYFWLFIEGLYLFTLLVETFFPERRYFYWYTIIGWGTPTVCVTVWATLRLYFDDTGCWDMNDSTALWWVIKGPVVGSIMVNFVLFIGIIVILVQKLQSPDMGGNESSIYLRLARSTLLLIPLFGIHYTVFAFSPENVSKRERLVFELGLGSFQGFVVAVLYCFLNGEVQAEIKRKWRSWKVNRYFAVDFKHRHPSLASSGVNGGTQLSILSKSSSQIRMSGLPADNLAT
Kind of assay: PAC1 luminescence (GloSensor cAMP) assay of PACAP derivatives. It is filed as cell-based. The method, then:
(Promega, Madison, WI). We generated a CHO K1 cell line expressing the required cAMP-dependent luciferase and PAC1 receptor. 24 h before the assay, 2500 cells per well were seeded in 100 µl F10 with 10% FBS in white opaque clear-bottom 96-well plates (Costar, Coppell, TX). […] Luminescence was measured for 30 min using a microtiter plate reader and evaluated after the signal reached a plateau (15 min).
Biotin (BT) and desthiobiotin (dBT) were incorporated as lysine sidechain-derivatized monomers in the synthesis; polyethylene glycol (PEG)-linked BT was incorporated as a BT-functionalized glutamine monomer spaced using a linker of four PEG units. […] Further BT-AVATar activation studies were performed using biotinylated bovine serum albumin (BSA, Sigma-Aldrich) containing 100 nM BT or biotinylated cells containing 150 nM BT (preparation see below) as analytes.
Addition of the maleimido functional group was achieved by reacting DA with N-succinimidyl 3-maleimidopropionate in anhydrous dimethylformamide and further purification using HPLC. The resulting functionalized neurotransmitter, DA-Mal, was further characterized by standard methods (Supplementary Methods and Supplementary Figs. 8 and 9). […] Dopamine sensitivity of the DA-AVATar was examined using freshly prepared DA (Sigma-Aldrich) stocks in PBS pH 7.4.

The mark [1] stands for this setting: CHO K1 cells expressing PAC1 and cAMP-dependent luciferase, no streptavidin, mean ± SD of duplicates, read-out: EC50 for PAC1 receptor activation in the absence of SA.

For `O=C(O)CCCC[C@@H]1SC[C@@H]2NC(=O)N[C@@H]21` [biotin], in the assay with streptavidin (SA), the “characteristic dissociation time of SA from biotin” value is given as ~ 7 h. As to `CC[C@H](C)[C@H](NC(=O)CNC(=O)[C@H](CC(=O)O)NC(=O)[C@H](CO)NC(=O)[C@@H](N)Cc1c[nH]cn1)C(=O)N[C@@H](Cc1ccccc1)C(=O)N[C@H](C(=O)N[C@@H](CC(=O)O)C(=O)N[C@@H](CO)C(=O)N[C@@H](CSC1CC(=O)N(CCC(=O)NCCc2ccc(O)c(O)c2)C1=O)C(=O)N[C@@H](CO)C(=O)N[C@@H](CCCNC(=N)N)C(=O)N[C@@H](Cc1ccc(O)cc1)C(=O)N[C@@H](CCCNC(=N)N)C(=O)N[C@@H](CCCCN)C(=O)N[C@@H](CCC(N)=O)C(=O)N[C@@H](CCSC)C(=O)N[C@@H](C)C(=O)N[C@H](C(=O)N[C@@H](CSC1CC(=O)N(CCC(=O)NCCc2ccc(O)c(O)c2)C1=O)C(=O)N[C@@H](CCCCN)C(=O)N[C@@H](Cc1ccc(O)cc1)C(=O)N[C@@H](CC(C)C)C(=O)N[C@@H](C)C(=O)N[C@@H](C)C(=O)N[C@H](C(=O)N[C@@H](CC(C)C)C(=O)NCC(=O)N[C@@H](CCCCN)C(=O)N[C@@H](CCCNC(=N)N)C(=O)N[C@@H](Cc1ccc(O)cc1)C(=O)N[C@@H](CCCCN)C(=O)N[C@@H](CCC(N)=O)C(=O)N[C@@H](CCCNC(=N)N)C(=O)N[C@H](C(=O)N[C@@H](CCCCN)C(=O)N[C@@H](CC(N)=O)C(=O)N[C@@H](CCCCN)C(N)=O)C(C)C)C(C)C)C(C)C)[C@@H](C)O` (some centres unmarked) [PACAP-10,20-DA] (H-HSDGIFTDSC(X2)SRYRKQMAVC(X2)KYLAAVLGKRYKQRVKNK-NH2), the EC50 at PACAP receptor PAC1 (DA conjugate, no IgG, SD of duplicates, read-out: EC50 for PAC1 receptor activation) stood at 2.5 ± 0.6 nM. Take `CC[C@H](C)[C@H](NC(=O)CNC(=O)[C@H](CC(=O)O)NC(=O)[C@H](CO)NC(=O)[C@@H](N)Cc1c[nH]cn1)C(=O)N[C@@H](Cc1ccccc1)C(=O)N[C@H](C(=O)N[C@@H](CC(=O)O)C(=O)N[C@@H](CO)C(=O)N[C@@H](CCCCNC(=O)CCCC[C@@H]1SC[C@@H]2NC(=O)N[C@@H]21)C(=O)N[C@@H](CO)C(=O)N[C@@H](CCCNC(=N)N)C(=O)N[C@@H](Cc1ccc(O)cc1)C(=O)N[C@@H](CCCNC(=N)N)C(=O)N[C@@H](CCCCN)C(=O)N[C@@H](CCC(N)=O)C(=O)N[C@@H](CCSC)C(=O)N[C@@H](C)C(=O)N[C@H](C(=O)N[C@@H](CCCCNC(=O)CCCC[C@@H]1SC[C@@H]2NC(=O)N[C@@H]21)C(=O)N[C@@H](CCCCN)C(=O)N[C@@H](Cc1ccc(O)cc1)C(=O)N[C@@H](CC(C)C)C(=O)N[C@@H](C)C(=O)N[C@@H](C)C(=O)N[C@H](C(=O)N[C@@H](CC(C)C)C(=O)NCC(=O)N[C@@H](CCCCN)C(=O)N[C@@H](CCCNC(=N)N)C(=O)N[C@@H](Cc1ccc(O)cc1)C(=O)N[C@@H](CCCCN)C(=O)N[C@@H](CCC(N)=O)C(=O)N[C@@H](CCCNC(=N)N)C(=O)N[C@H](C(=O)N[C@@H](CCCCN)C(=O)N[C@@H](CC(N)=O)C(=O)N[C@@H](CCCCN)C(N)=O)C(C)C)C(C)C)C(C)C)[C@@H](C)O` [PACAP-10,20-BT] (H-HSDGIFTDSK(Biotin)SRYRKQMAVK(Biotin)KYLAAVLGKRYKQRVKNK-NH2): at PACAP receptor PAC1 (setting [1]), the EC50 was 0.061 ± 0.007 nM.

As to `C[C@@H]1NC(=O)N[C@@H]1CCCCCC(=O)O` [desthiobiotin], the “affinity for SA relative to biotin (lower)” value with streptavidin (SA) is 10,000 fold. Regarding `CC[C@H](C)[C@H](NC(=O)CNC(=O)[C@H](CC(=O)O)NC(=O)[C@H](CO)NC(=O)[C@@H](N)Cc1c[nH]cn1)C(=O)N[C@@H](Cc1ccccc1)C(=O)N[C@H](C(=O)N[C@@H](CC(=O)O)C(=O)N[C@@H](CO)C(=O)N[C@@H](CCCCNC(=O)CCCCC[C@H]1NC(=O)N[C@H]1C)C(=O)N[C@@H](CO)C(=O)N[C@@H](CCCNC(=N)N)C(=O)N[C@@H](Cc1ccc(O)cc1)C(=O)N[C@@H](CCCNC(=N)N)C(=O)N[C@@H](CCCCN)C(=O)N[C@@H](CCC(N)=O)C(=O)N[C@@H](CCSC)C(=O)N[C@@H](C)C(=O)N[C@H](C(=O)N[C@@H](CCCCNC(=O)CCCCC[C@H]1NC(=O)N[C@H]1C)C(=O)N[C@@H](CCCCN)C(=O)N[C@@H](Cc1ccc(O)cc1)C(=O)N[C@@H](CC(C)C)C(=O)N[C@@H](C)C(=O)N[C@@H](C)C(=O)N[C@H](C(=O)N[C@@H](CC(C)C)C(=O)NCC(=O)N[C@@H](CCCCN)C(=O)N[C@@H](CCCNC(=N)N)C(=O)N[C@@H](Cc1ccc(O)cc1)C(=O)N[C@@H](CCCCNC(=O)CCCCC[C@H]1NC(=O)N[C@H]1C)C(=O)N[C@@H](CCC(N)=O)C(=O)N[C@@H](CCCNC(=N)N)C(=O)N[C@H](C(=O)N[C@@H](CCCCN)C(=O)N[C@@H](CC(N)=O)C(=O)N[C@@H](CCCCN)C(N)=O)C(C)C)C(C)C)C(C)C)[C@@H](C)O` [PACAP-10,20,32-dBT] (H-HSDGIFTDSK(X1)SRYRKQMAVK(X1)KYLAAVLGKRYK(X1)QRVKNK-NH2), the EC50 on PACAP receptor PAC1 (setting [1]) is 0.13 ± 0.002 nM.
